Experimental data from article PMC8819291, “Adaptively evolved human oral actinomyces‐sourced defensins show therapeutic potential” (EMBO Molecular Medicine, 2021).
Where a SMILES comes first, the peptide text is derived from it. Bridges are numbered along the chain shown (N, C = ends).

How the values were obtained:
[1] = 37°C
hLZc (lysozyme C) = target: T1, hLZc (lysozyme C) (Homo sapiens, UniProt P61626); assay: Bio-affinity ESI-MS for non-covalent complexes; assay type: binding; settings: 52.5 μM AMSIN and 50 μM hLZc in 25 mM NH4OAc (pH5.2)
T1 construct: lysozyme C) isolated from human saliva; from tissue; host or cells: human saliva
Procedure: (§1) All components for interactions were dissolved in 25 mM ammonium acetate (pH5.2). Electrospray spectra were recorded with Waters SynaptG2‐Si mass spectrometer (Waters, Manchester, UK) and measurements were performed with positive ESI in resolution mode. Ions were scanned in a mass range of 500–2,000 m/z with the following conditions: the capillary voltage at 1,500 V; the cone voltage at 40 V; the source block temperature at 30°C. Spectra were recorded and processed by the software Masslynx4.1 (Waters, Manchester, UK).

HNP1&2 = HNP1&2 (Homo sapiens, UniProt P59665); assay: Bio-affinity ESI-MS for non-covalent complexes; assay type: binding; settings: 52.5 μM AMSIN and 73.5 μM HNP1&2 in 25 mM NH4OAc (pH5.2)
Procedure: as §1

HL‐60 cells = assay: Peptide-induced MCP-1 release (ELISA); assay type: cell-based, human; settings: 24 h
Procedure: A549 and HL‐60 cells were purchased from the Cell Resource Center of the Chinese Academy of Medical Sciences (Beijing, China). They were tested for mycoplasma contamination with the Mycoplasma Detection Kit (Solarbio, China) and only negative cultures were used in our experiments. The cells were cultured in complete Dulbecco’s Modified Eagle Medium (DMEM) supplemented with 10% fetal bovine serum (FBS), penicillin (100 units/ml), and streptomycin ([…]) at 37°C in 5% CO2. The culture medium was changed every 2 days. Cells were passaged every 4–5 days with 0.25% trypsin (Gibco, USA). For enzyme‐linked immunosorbent assay (ELISA) (Hara et al, [2008]), A549 or HL‐60 cells were seeded in six‐well plates at a density of 1 × 10^5 cells/well and were incubated at 37°C in 5% CO2 overnight. Medium was aspirated and replaced with fresh complete DMEM supplemented with 10% FBS or serum‐free medium, both containing different concentrations of polypeptides for 24 h. Then, the supernatants were harvested for quantification of the IL‐8 amount in A549 by the Human CXCL8/IL‐8 Quantikine ELISA Kit (R&D Systems Inc., Minneapolis, MN, USA) and the MCP‐1 amount in HL‐60 by the Human MCP‐1 ELISA Kit (Boster Biological Technology Co., Ltd, Wuhan, China) as per the manufactures’ instructions.

HEK 293 = settings: 25 µM (Appendix Fig S14), 72 h, CCK‐8
Procedure: Cells were cultured at 37°C in 5% CO2: 95% air incubator in Minimum Essential Medium (MEM) supplemented with 10% (v/v) fetal bovine serum (FBS). Cells were seeded at a density of 7 × 10^3 cells per well in 96‐well plates and incubated for 24 h. Media were then replaced with 200 μl of media containing various concentrations of peptides. The cells were incubated for 72 h and cytotoxicity was assessed with CCK‐8 Kits (Dojindo Molecular Technologies, Tokyo, Japan). Absorbance was detected at 450 nm with the TECAN Infinite M200 microplate reader (Tecan, Durham, USA).

Kv1.5 = Kv1.5 (Homo sapiens, UniProt P22460); settings: 100 μM AMSIN
Procedure: (§2) For the expression of Nav1.5, Kv1.4, Kv1.5, Kv2.1, Kv4.3, and hERG in Xenopus oocytes, the linearized plasmids were transcribed using the T7 or SP6 mMESSAGE‐mMACHINE transcription kit (Ambion). The harvesting of stage V–VI oocytes from an anesthetized female Xenopus laevis frog was previously described (Zhu et al, [2020]). Oocytes were injected with 50 nl of cRNA at a concentration of 1 ng/nl using a micro‐injector (Drummond Scientific, USA). The oocytes were incubated in a solution containing (in mM): NaCl, 96; KCl, 2; CaCl2, 1.8; MgCl2, 2 and HEPES, 5 (pH 7.4), supplemented with 50 mg/l gentamycin sulfate. Two‐electrode voltage‐clamp recordings were performed at room temperature (18–22°C) using a Geneclamp 500 amplifier (Axon Instruments, USA) controlled by a pClamp data acquisition system (Axon Instruments, USA). Whole‐cell currents from oocytes were recorded 1–4 days after injection. Bath solution composition was (in mM): NaCl, 96; KCl, 2; CaCl2, 1.8; MgCl2, 2 and HEPES, 5 (pH 7.4). Voltage and current electrodes were filled with 3 M KCl. Resistances of both electrodes were kept between 0.7 and 1.5 M Ω. Elicited currents were sampled at 1 kHz and filtered at 0.5 kHz (for potassium currents) or sampled at 20 kHz and filtered at 2 kHz (for sodium currents) using a four‐pole low‐pass Bessel filter. […] Current traces of hERG channels were elicited by applying a +40 mV prepulse for 2 s followed by a step to −120 mV for 2 s.

hERG = hERG (Homo sapiens, UniProt Q12809); settings: 100 μM AMSIN
Procedure: as §2

Kv2.1 = Kv2.1 (Homo sapiens, UniProt Q14721); settings: 100 μM AMSIN
Procedure: as §2

Nav1.5 = Nav1.5 (Homo sapiens, UniProt Q14524); settings: 100 μM AMSIN
Procedure: as §2

Kv4.3 = Kv4.3 (Homo sapiens, UniProt Q9UK17); settings: 100 μM AMSIN
Procedure: as §2

Kv1.4 = Kv1.4 (Homo sapiens, UniProt P22459); settings: 100 μM AMSIN
Procedure: as §2

Chain of Nav1.5 (Q14524 whole entry): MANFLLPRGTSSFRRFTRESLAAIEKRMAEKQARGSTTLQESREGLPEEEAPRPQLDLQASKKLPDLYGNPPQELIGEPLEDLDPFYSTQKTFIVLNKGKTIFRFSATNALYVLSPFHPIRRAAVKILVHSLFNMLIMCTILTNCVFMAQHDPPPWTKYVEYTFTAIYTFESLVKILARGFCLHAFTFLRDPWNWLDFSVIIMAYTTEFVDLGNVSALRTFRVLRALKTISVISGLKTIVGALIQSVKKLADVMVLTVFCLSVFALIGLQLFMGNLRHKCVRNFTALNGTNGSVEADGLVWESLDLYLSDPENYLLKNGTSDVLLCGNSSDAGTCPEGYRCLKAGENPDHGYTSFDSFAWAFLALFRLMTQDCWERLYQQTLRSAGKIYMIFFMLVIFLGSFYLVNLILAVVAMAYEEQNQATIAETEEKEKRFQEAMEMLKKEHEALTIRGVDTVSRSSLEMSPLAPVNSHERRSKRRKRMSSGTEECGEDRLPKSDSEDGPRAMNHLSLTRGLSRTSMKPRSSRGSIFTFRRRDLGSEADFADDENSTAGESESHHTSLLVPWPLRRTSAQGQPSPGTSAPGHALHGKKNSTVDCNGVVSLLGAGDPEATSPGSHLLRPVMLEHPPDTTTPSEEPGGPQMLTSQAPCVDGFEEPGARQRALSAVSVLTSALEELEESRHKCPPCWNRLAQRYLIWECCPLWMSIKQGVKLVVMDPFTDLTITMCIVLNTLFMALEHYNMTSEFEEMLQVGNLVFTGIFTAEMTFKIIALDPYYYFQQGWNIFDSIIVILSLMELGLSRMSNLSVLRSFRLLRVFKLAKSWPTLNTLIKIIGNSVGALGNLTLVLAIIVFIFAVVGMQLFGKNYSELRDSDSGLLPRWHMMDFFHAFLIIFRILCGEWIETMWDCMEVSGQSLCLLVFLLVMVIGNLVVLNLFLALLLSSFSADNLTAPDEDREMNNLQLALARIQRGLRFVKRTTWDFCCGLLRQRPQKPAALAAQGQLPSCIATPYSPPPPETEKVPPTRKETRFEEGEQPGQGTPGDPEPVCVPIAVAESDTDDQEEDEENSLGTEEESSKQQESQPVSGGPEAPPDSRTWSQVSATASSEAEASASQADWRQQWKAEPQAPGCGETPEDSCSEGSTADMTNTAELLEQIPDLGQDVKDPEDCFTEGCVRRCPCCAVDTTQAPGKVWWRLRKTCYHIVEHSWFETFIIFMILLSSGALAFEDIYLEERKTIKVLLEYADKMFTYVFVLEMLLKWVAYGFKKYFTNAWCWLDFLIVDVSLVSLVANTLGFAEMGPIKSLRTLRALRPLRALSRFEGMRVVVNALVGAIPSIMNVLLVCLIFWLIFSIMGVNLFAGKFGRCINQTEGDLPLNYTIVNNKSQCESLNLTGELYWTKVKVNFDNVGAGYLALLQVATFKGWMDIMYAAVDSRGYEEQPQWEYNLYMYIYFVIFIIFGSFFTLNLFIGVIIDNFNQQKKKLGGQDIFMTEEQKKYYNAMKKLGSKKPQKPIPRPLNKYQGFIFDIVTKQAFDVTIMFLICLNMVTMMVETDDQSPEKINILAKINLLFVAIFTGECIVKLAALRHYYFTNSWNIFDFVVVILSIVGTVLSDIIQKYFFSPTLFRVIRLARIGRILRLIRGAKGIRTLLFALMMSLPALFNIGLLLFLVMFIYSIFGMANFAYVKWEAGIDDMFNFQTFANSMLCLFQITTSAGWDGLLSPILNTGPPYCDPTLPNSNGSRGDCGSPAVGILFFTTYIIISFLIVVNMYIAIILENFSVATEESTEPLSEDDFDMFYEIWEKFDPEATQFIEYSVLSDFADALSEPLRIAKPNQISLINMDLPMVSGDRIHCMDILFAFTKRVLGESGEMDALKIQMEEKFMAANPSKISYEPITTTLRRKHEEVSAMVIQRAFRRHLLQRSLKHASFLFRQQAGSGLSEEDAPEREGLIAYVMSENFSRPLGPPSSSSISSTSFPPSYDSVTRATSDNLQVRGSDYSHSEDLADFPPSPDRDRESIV
Chain of Kv4.3 (Q9UK17 whole entry): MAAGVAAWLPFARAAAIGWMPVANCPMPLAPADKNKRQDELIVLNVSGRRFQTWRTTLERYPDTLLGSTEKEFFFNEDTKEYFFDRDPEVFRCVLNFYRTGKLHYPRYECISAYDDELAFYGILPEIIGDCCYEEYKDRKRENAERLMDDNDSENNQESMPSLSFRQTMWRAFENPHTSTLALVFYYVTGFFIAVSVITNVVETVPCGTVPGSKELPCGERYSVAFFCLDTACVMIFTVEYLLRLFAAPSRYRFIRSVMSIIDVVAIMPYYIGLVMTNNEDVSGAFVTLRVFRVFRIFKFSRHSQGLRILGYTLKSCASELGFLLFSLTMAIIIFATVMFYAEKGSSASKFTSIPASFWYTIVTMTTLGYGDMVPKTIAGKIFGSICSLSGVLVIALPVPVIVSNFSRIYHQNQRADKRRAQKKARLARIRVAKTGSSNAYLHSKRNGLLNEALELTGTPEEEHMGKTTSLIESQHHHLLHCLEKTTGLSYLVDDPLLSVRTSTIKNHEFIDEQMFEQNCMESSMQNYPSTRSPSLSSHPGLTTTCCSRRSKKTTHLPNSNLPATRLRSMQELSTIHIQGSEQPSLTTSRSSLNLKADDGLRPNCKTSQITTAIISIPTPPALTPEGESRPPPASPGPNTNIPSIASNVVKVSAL
T1 sequence (P61626 19-148): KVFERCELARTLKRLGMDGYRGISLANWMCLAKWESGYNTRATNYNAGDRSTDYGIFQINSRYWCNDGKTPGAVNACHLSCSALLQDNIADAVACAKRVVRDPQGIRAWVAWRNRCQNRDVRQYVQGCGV
Chain of HNP1&2 (P59665 66-94 limits assumed): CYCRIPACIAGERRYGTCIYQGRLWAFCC
Chain of hERG (Q12809 whole entry): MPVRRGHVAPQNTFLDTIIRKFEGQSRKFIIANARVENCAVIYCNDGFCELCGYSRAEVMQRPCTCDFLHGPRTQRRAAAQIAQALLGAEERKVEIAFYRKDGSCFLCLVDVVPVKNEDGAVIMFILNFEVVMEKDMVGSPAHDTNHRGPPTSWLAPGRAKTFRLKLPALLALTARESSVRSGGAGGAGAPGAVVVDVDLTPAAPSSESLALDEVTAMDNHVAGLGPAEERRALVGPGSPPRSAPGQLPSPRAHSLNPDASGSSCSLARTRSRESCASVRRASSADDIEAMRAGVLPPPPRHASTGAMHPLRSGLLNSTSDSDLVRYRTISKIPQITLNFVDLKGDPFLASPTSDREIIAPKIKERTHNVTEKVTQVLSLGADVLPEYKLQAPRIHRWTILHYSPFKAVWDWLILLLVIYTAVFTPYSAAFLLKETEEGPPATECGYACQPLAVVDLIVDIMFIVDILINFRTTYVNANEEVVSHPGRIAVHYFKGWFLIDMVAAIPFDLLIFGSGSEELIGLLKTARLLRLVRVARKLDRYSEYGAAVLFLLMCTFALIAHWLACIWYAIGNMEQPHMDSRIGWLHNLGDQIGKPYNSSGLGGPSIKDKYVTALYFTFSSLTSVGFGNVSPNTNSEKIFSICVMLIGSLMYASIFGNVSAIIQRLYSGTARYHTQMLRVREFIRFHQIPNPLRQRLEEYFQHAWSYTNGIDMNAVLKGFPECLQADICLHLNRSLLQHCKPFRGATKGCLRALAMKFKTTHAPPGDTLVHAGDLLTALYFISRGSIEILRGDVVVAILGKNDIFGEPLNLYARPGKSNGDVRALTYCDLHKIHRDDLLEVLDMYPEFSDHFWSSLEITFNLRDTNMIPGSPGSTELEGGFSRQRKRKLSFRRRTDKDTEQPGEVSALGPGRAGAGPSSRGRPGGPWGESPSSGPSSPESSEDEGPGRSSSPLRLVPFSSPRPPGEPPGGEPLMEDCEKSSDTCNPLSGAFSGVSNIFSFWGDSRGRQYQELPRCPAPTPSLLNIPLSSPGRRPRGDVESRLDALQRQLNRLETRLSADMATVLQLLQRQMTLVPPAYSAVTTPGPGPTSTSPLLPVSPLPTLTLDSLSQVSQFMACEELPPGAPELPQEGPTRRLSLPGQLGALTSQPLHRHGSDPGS
Chain of Kv2.1 (Q14721 whole entry): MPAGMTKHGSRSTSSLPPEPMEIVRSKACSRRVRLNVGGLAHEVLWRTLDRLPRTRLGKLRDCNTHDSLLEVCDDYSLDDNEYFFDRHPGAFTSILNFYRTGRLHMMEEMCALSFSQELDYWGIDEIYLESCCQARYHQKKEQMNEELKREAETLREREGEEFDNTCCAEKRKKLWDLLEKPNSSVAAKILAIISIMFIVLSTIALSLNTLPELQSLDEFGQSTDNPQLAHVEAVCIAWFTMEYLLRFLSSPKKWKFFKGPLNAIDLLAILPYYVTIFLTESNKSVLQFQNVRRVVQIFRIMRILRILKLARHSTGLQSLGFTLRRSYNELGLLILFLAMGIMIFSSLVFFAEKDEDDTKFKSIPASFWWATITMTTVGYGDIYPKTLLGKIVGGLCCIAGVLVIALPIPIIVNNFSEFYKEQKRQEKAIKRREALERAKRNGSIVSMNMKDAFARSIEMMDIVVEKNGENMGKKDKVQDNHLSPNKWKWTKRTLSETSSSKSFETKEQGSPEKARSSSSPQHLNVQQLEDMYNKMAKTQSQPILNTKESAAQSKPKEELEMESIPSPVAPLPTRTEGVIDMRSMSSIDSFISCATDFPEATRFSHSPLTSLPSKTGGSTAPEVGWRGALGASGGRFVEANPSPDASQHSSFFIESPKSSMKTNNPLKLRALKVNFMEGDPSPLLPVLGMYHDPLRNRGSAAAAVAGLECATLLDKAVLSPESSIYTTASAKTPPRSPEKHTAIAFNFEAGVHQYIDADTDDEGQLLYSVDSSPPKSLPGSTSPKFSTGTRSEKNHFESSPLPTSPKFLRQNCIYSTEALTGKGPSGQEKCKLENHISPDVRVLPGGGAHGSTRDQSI

Question: Which “Residual antibacterial activity” value ([1]; 24 h in fresh normal mouse serum without dilution) does the source give for `CC[C@H](C)[C@@H]1NC(=O)[C@H](CCCCN)NC(=O)CNC(=O)[C@H](CCCNC(=N)N)NC(=O)[C@@H]2CSSC[C@H](NC(=O)CNC(=O)[C@H](Cc3ccccc3)NC(=O)CN)C(=O)N3CCC[C@H]3C(=O)N[C@@H](Cc3c[nH]c4ccccc34)C(=O)N[C@@H](CC(N)=O)C(=O)N[C@@H](C)C(=O)N[C@@H](Cc3ccc(O)cc3)C(=O)N[C@@H](CCC(=O)O)C(=O)N[C@H]3CSSC[C@H](NC(=O)[C@H]([C@@H](C)O)NC(=O)[C@H](CCC(N)=O)NC(=O)[C@H](CCCNC(=N)N)NC1=O)C(=O)N[C@@H](Cc1c[nH]cn1)C(=O)N[C@H](C(=O)N[C@@H](Cc1ccc(O)cc1)C(=O)O)CSSC[C@H](NC(=O)[C@H](Cc1c[nH]cn1)NC(=O)[C@H](CCCNC(=N)N)NC(=O)[C@H](CC(=O)O)NC3=O)C(=O)N[C@@H](C(C)C)C(=O)N[C@@H](CO)C(=O)N[C@@H](CCCCN)C(=O)NCC(=O)N[C@@H](Cc1ccc(O)cc1)C(=O)N[C@@H]([C@@H](C)O)C(=O)NCC(=O)NCC(=O)N[C@@H](CC(N)=O)C(=O)N2` [AMSIN] (H-GFGCPWNAYECDRHCVSKGYTGGNCRGKIRQTCHCY-OH; disulfide 4-25, 11-33, 15-35; N-terminus and C-terminus assumed) here?
Answer: The value was “full antibacterial activity”.

Question: What about the “Activity in serum compared with in H2O” value ([1]; undiluted mouse serum, 48‐h study period) of the same molecule?
Answer: Its value is “slight decrease”.

Question: What about the “Complex formation by ESI-MS” value (hLZc (lysozyme C)) of the same molecule?
Answer: The value was “no complex formation”.

Question: And the “Complex formation by ESI-MS” value (HNP1&2)?
Answer: Its value is “no complex formation”.

Question: What about the “MCP-1” value (HL‐60 cells; FBS-containing medium, 25 μg/mL, replicate 1) of the same molecule?
Answer: Its value is 380 pg/mL.

Question: And the “MCP-1” value (HL‐60 cells; FBS-containing medium, 25 μg/mL, replicate 2)?
Answer: Its value is 485 pg/mL.

Question: What about the “MCP-1” value (HL‐60 cells; FBS-containing medium, 25 μg/mL, replicate 3) of the same molecule?
Answer: Its value is 359 pg/mL.

Question: What about the “MCP-1” value (HL‐60 cells; FBS-containing medium, 50 μg/mL, replicate 1) of the same molecule?
Answer: The value was 453 pg/mL.

Question: And the “MCP-1” value (HL‐60 cells; FBS-containing medium, 50 μg/mL, replicate 2)?
Answer: Its value is 523 pg/mL.

Question: And the “MCP-1” value (HL‐60 cells; FBS-containing medium, 50 μg/mL, replicate 3)?
Answer: Its value is 432 pg/mL.

Question: And the “MCP-1” value (HL‐60 cells; FBS-containing medium, 100 μg/mL, replicate 1)?
Answer: Its value is 419 pg/mL.

Question: What about the “MCP-1” value (HL‐60 cells; FBS-containing medium, 100 μg/mL, replicate 2) of the same molecule?
Answer: Its value is 423 pg/mL.

Question: What about the “MCP-1” value (HL‐60 cells; FBS-containing medium, 100 μg/mL, replicate 3) of the same molecule?
Answer: Its value is 398 pg/mL.

Question: And the “MCP-1” value (HL‐60 cells; Serum-Free medium, 25 μg/mL, replicate 1)?
Answer: Its value is 393 pg/mL.

Question: And the “MCP-1” value (HL‐60 cells; Serum-Free medium, 25 μg/mL, replicate 2)?
Answer: Its value is 431 pg/mL.

Question: And the “MCP-1” value (HL‐60 cells; Serum-Free medium, 25 μg/mL, replicate 3)?
Answer: The value was 372 pg/mL.

Question: And the “MCP-1” value (HL‐60 cells; Serum-Free medium, 50 μg/mL, replicate 1)?
Answer: The value was 447 pg/mL.

Question: What about the “MCP-1” value (HL‐60 cells; Serum-Free medium, 50 μg/mL, replicate 2) of the same molecule?
Answer: Its value is 450 pg/mL.

Question: And the “MCP-1” value (HL‐60 cells; Serum-Free medium, 50 μg/mL, replicate 3)?
Answer: Its value is 426 pg/mL.

Question: And the “MCP-1” value (HL‐60 cells; Serum-Free medium, 100 μg/mL, replicate 1)?
Answer: Its value is 418 pg/mL.

Question: And the “MCP-1” value (HL‐60 cells; Serum-Free medium, 100 μg/mL, replicate 2)?
Answer: The value was 427 pg/mL.

Question: What about the “MCP-1” value (HL‐60 cells; Serum-Free medium, 100 μg/mL, replicate 3) of the same molecule?
Answer: Its value is 397 pg/mL.

Question: And the “Viability of HEK 293” value (HEK 293)?
Answer: Its value is “did not affect the viability”.

Question: And the “Effect on channel current” value (Kv1.5)?
Answer: The value was “no any effect”.

Question: What about the “Effect on channel current” value (hERG) of the same molecule?
Answer: The value was “no any effect”.

Question: What about the “Effect on channel current” value (Kv2.1) of the same molecule?
Answer: The value was “no any effect”.

Question: What about the “Effect on channel current” value (Nav1.5) of the same molecule?
Answer: Its value is “no any effect”.

Question: What about the “Effect on channel current” value (Kv4.3) of the same molecule?
Answer: Its value is “no any effect”.

Question: And the “Effect on channel current” value (Kv1.4)?
Answer: The value was “no any effect”.
